Reference: patent publication US20120245357A1, “ALR2 INHIBITORS AND THEIR SYNTHESIS FROM A NATURAL SOURCE” (COUNCIL OF SCIENTIFIC & INDUSTRIAL RESEARCH, priority 2010, published 2012)
Read-outs that look alike come from different tables or passages of the source.

How the values were obtained:
human recombinant ALR2 = biological target: T1, human recombinant ALR2 (Homo sapiens, UniProt P15121); assay: ALR2 inhibition and determination of IC50 values (NADPH oxidation at 340 nm); assay type: biochemical
T1 construct: made in house; host or cells: E. coli JM101
Description: Transformed cells were selected on LB-medium containing 50 μg/ml spectinomycin and were grown overnight at 37° C. in LB broth containing M9 medium supplemented with 1% casamino acids, […] thiamine, and 0.05% trace metals. Culture was induced by isopropyl thiogalactoside (IPTG) at the final concentration of 1 mM and grown for additional 2 hours. Cells were harvested by spinning at 2000 g for 5 min at 4° C. and subjected to osmotic fractionation by suspending them in 20% sucrose, 30 mM Tris pH 7.5, 1 mM EDTA, and then cells were incubated at 23° C. for 15 min. After incubation, cells were recovered by centrifugation for 15 min at 2000 g at 4° C. Supernatant (sucrose wash) was reserved and pellet was resuspended in 1 ml of ice cold deionized water and incubated for 10 min on ice. Again cells were recovered by centrifugation at 12000 g for 5 min at 4° C. Supernatant (water wash) was reserved and pellet was resuspended in 1 ml of ice cold deionized water. Osmotic shock extract was further subjected to purification.
Osmotic shock extract was subjected to 50-80% ammonium sulphate fractionation followed by centrifugation at 10,000 g for 20 min. The pellet obtained was resuspended in 100-200 ml of 25 mM imidazole-HCl, pH 7.4. Crude lysate was applied to chromatography column packed with PBE 94 chromatofocussing resin, which had been previously equilibrated with 25 mM imidazole. Proteins were eluted from the column with 1:8 diluted polybuffer pH 7.4. Column eluant was continuously monitored by measuring absorbance at 280 nm. Fractions containing ALR2 activity were pooled and dialyzed against 10 mM potassium phosphate buffer containing 0.5 mM EDTA. Dialyzed samples were then applied to 30×2.5 cm at hydroxylapatite column equilibrated with 10 mM potassium phosphate buffer pH 7.4 containing 0.5 mM EDTA at a flow rate of 60 ml/h. The enzyme was eluted with a linear gradient 10-300 mM potassium phosphate buffer, pH 7.0. Fractions from each purification step are subjected to SDS-PAGE. Fractions containing ALR2 activity were pooled, concentrated and stored at −20° C. until further inhibition studies.
The assay mixture in 1 ml contained 50 mM potassium phosphate buffer, pH 6.2, 0.2 mM lithium sulfate, 5 mM 2-mercaptoethanol, 1 mM DL-glyceraldehyde, 0.1 mM NADPH and recombinant ALR2. Appropriate blanks were employed for corrections. The assay mixture was incubated at 37° C. and initiated by the addition of NADPH at 37° C. The change in the absorbance at 340 nm due to NADPH oxidation was monitored in a Lamda35 spectrophotometer (Perkin-Elmer, Shelton, USA).
For inhibition studies concentrated stocks of compounds prepared in dimethyl sulfoxide were used and the final concentration of DMSO was not more than 1% of the assay volume. Various concentrations of the above mentioned analogues were added to assay mixture of ALR2 and incubated for 5 min before initiating the reaction by NADPH as described above. The percentage inhibition was calculated considering the activity in the absence of compound as 100%. The IC50 values were determined by nonlinear regression analysis of the plot of percent inhibition versus log compound concentration.

human RBC = assay: Inhibition of sorbitol formation in RBC under high glucose conditions (ex vivo); assay type: cell-based; conditions: human RBC incubated under high glucose condition (55 mM), 3 hrs
Description: In vitro incubation of RBC: Five mL blood was collected from healthy male volunteers on overnight fasting in heparinized tubes. Red blood cells were separated by centrifugation (3000 rpm/min about 30 min) and washed three times with isotonic saline at 4° C. Washed RBC were suspended in Kreb's-ringer bicarbonate buffer, pH 7.4 (pre-equilibrated with 5% CO2) and incubated at 37° C. in presence of 5% CO2 for 3 hrs under normal (5.5 mM) and high glucose (55 mM) conditions in duplicates. The effect of compounds on sorbitol accumulation was evaluated by incubating the RBC with different concentrations of compounds.
Estimation of sorbitol in RBC: At the end of incubation period, RBC was homogenized in 9 volumes of 0.8 M perchloric acid. The homogenate was centrifuged at 5,000 g at 4° C. for 10 min and the pH of the supernatant was adjusted to 3.5 with 0.5 M potassium carbonate. The sorbitol content of the supernatant was measured by fluorometric method using a spectrofluorometer (Jasco-FP-6500).

[1] = human recombinant ALR2, read-out: IC50 value, ALR2 inhibition
[2] = recombinant human ALR2 in vitro, average of four experimental values, read-out: IC-50

With `COc1cc(C(CC(=O)N2CCC(c3cn(Cc4ccccc4)c4ccccc34)CC2=O)c2cn(Cc3ccccc3)c3ccccc23)cc(OC)c1OC` (stereo not shown) [3c, 1-(3-(1-benzyl-1H-indol-3-yl)-3-(3,4,5-trimethoxyphenyl)propanoyl)-4-(1-benzyl-1H-indol-3-yl)piperidin-2-one] the IC50 (human recombinant ALR2; [1]) was 4 µM and the “% inhibition of sorbitol formation” value (human RBC) was 58.5%.
`COc1cc(C(CC(=O)N2CCC=CC2=O)c2c[nH]c3ccc(Br)cc23)cc(OC)c1OC` (racemic) [2g, 1-(3-(5-bromo-1H-indol-3-yl)-3-(3,4,5-trimethoxyphenyl)propanoyl)-5,6-dihydropyridin-2(1H)-one] gave an IC50 (human recombinant ALR2; SAR studies text, read-out: IC50, in-vitro aldose reductase inhibition) of 60 µM and an IC50 (human recombinant ALR2; [1]) of 15 µM.
Work on pipernal yielded an IC50 (human recombinant ALR2; [1]) of 310 µM.
With `COc1ccc2[nH]cc(C(CC(=O)N3CCC=CC3=O)c3cc(OC)c(OC)c(OC)c3)c2c1` (stereo not shown) [2j, 1-(3-(5-methoxy-1H-indol-3-yl)-3-(3,4,5-trimethoxyphenyl)propanoyl)-5,6-dihydropyridin-2(M)-one] the IC50 (human recombinant ALR2; [1]) was 8 µM and the “% inhibition of sorbitol formation” value (human RBC) was 64.9%.
`COc1cc(C(CC(=O)N2CCC(c3c(C)[nH]c4ccccc34)CC2=O)c2c(C)[nH]c3ccccc23)cc(OC)c1OC` (stereo not shown) [3d, 1-(3-(3,4,5-trimethoxyphenyl)-3-(2-methyl-1H-indol-3-yl)propanoyl)-4-(2-methyl-1H-indol-3-yl)piperidin-2-one] was tested, and the IC50 (human recombinant ALR2; [2]) was 40 µM.
With `COc1cc(C(CC(=O)O)c2c(C)[nH]c3ccccc23)cc(OC)c1OC` (stereo not shown) [compound 4, 3-(3,4,5-trimethoxyphenyl)-3-(2-methyl-1H-indol-3-yl)propanoic acid] the “ALR2 inhibitory activity (in words)” value (human recombinant ALR2) was “inactive”.
With `COc1cc(C(CC(=O)N2CCC(c3c(-c4ccccc4)[nH]c4ccccc34)CC2=O)c2c(-c3ccccc3)[nH]c3ccccc23)cc(OC)c1OC` (stereo not shown) [3e, 1-(3-(3,4,5-trimethoxyphenyl)-3-(2-phenyl-1H-indol-3-yl)propanoyl)-4-(2-phenyl-1H-indol-3-yl)piperidin-2-one] the IC50 (human recombinant ALR2; [2]) was 4 µM and the “% inhibition of sorbitol formation” value (human RBC) was 68%.
`COc1cc(/C=C/C(=O)N2CCC=CC2=O)cc(OC)c1OC` [Piplartine, 5,6-dihydro-1-((E)-3-(3,4,5-trimethoxyphenyl)acryloyl)pyridin-2(1H)-one] was tested, and the IC50 (human recombinant ALR2; [1]) was 160 µM.
`COC(=O)/C=C/c1cc(OC)c(OC)c(OC)c1` [compound 5, (E)-methyl 3-(3,4,5-trimethoxyphenyl)acrylate] was tested, and the “ALR2 inhibitory activity (in words)” value (human recombinant ALR2) was “inactive”.
